Laboratory results published in the NIST ThermoML archive (doi:10.1021/je201277d).
± gives the expanded uncertainty stated by the source.

Experiments:
[1] = refractive index (other wavelength) (dimensionless); settings: 298.15 K, 101.3 kPa, Liquid
[2] = refractive index (other wavelength) (dimensionless); wn = mass fraction of the nth substance listed; settings: 298.15 K, 101.3 kPa, Liquid

## C1CCCCC1 [cyclohexane]
[1]; Wavelength=670 nm
  refractive index: 1.42253 ± 0.00063
[1]; Wavelength=925 nm
  refractive index: 1.41832 ± 0.00063

## C1CCCCC1 [cyclohexane] + Cc1ccccc1
[2]; Wavelength=670 nm, w1 = 0.0996
  refractive index: 1.48158 ± 0.00063
[2]; Wavelength=670 nm, w1 = 0.2002
  refractive index: 1.47363 ± 0.00063
[2]; Wavelength=670 nm, w1 = 0.2995
  refractive index: 1.46616 ± 0.00063
[2]; Wavelength=670 nm, w1 = 0.4003
  refractive index: 1.45883 ± 0.00063
[2]; Wavelength=670 nm, w1 = 0.5004
  refractive index: 1.45162 ± 0.00063
[2]; Wavelength=670 nm, w1 = 0.6002
  refractive index: 1.44527 ± 0.00063
[2]; Wavelength=670 nm, w1 = 0.7
  refractive index: 1.43903 ± 0.00063
[2]; Wavelength=670 nm, w1 = 0.8005
  refractive index: 1.43327 ± 0.00063
[2]; Wavelength=670 nm, w1 = 0.9001
  refractive index: 1.42768 ± 0.00063
[2]; Wavelength=925 nm, w1 = 0.0996
  refractive index: 1.47383 ± 0.00063
[2]; Wavelength=925 nm, w1 = 0.2002
  refractive index: 1.46618 ± 0.00063
[2]; Wavelength=925 nm, w1 = 0.2995
  refractive index: 1.4592 ± 0.00063
[2]; Wavelength=925 nm, w1 = 0.4003
  refractive index: 1.45229 ± 0.00063
[2]; Wavelength=925 nm, w1 = 0.5004
  refractive index: 1.44539 ± 0.00063
[2]; Wavelength=925 nm, w1 = 0.6002
  refractive index: 1.43956 ± 0.00063
[2]; Wavelength=925 nm, w1 = 0.7
  refractive index: 1.43363 ± 0.00063
[2]; Wavelength=925 nm, w1 = 0.8005
  refractive index: 1.42825 ± 0.00063
[2]; Wavelength=925 nm, w1 = 0.9001
  refractive index: 1.42296 ± 0.00063

## CO [methanol]
[1]; Wavelength=670 nm
  refractive index: 1.32603 ± 0.00063
[1]; Wavelength=925 nm
  refractive index: 1.32235 ± 0.00063

## C1CCCCC1 [cyclohexane] + CO
[2]; Wavelength=670 nm, w1 = 0.1
  refractive index: 1.33196 ± 0.00063
[2]; Wavelength=670 nm, w1 = 0.2004
  refractive index: 1.34128 ± 0.00063
[2]; Wavelength=670 nm, w1 = 0.2999
  refractive index: 1.34987 ± 0.00063
[2]; Wavelength=925 nm, w1 = 0.1
  refractive index: 1.32811 ± 0.00063
[2]; Wavelength=925 nm, w1 = 0.2004
  refractive index: 1.33737 ± 0.00063
[2]; Wavelength=925 nm, w1 = 0.2999
  refractive index: 1.34602 ± 0.00063

## Cc1ccccc1 [toluene] + CO
[2]; Wavelength=670 nm, w1 = 0.1001
  refractive index: 1.34089 ± 0.00063
[2]; Wavelength=670 nm, w1 = 0.1994
  refractive index: 1.35612 ± 0.00063
[2]; Wavelength=670 nm, w1 = 0.3001
  refractive index: 1.37219 ± 0.00063
[2]; Wavelength=670 nm, w1 = 0.4
  refractive index: 1.38826 ± 0.00063
[2]; Wavelength=670 nm, w1 = 0.4996
  refractive index: 1.4056 ± 0.00063
[2]; Wavelength=670 nm, w1 = 0.6
  refractive index: 1.42196 ± 0.00063
[2]; Wavelength=670 nm, w1 = 0.6994
  refractive index: 1.43865 ± 0.00063
[2]; Wavelength=670 nm, w1 = 0.8001
  refractive index: 1.45699 ± 0.00063
[2]; Wavelength=670 nm, w1 = 0.8994
  refractive index: 1.47418 ± 0.00063
[2]; Wavelength=925 nm, w1 = 0.1001
  refractive index: 1.33686 ± 0.00063
[2]; Wavelength=925 nm, w1 = 0.1994
  refractive index: 1.35152 ± 0.00063
[2]; Wavelength=925 nm, w1 = 0.3001
  refractive index: 1.36718 ± 0.00063
[2]; Wavelength=925 nm, w1 = 0.4
  refractive index: 1.38279 ± 0.00063
[2]; Wavelength=925 nm, w1 = 0.4996
  refractive index: 1.39956 ± 0.00063
[2]; Wavelength=925 nm, w1 = 0.6
  refractive index: 1.41564 ± 0.00063
[2]; Wavelength=925 nm, w1 = 0.6994
  refractive index: 1.43182 ± 0.00063
[2]; Wavelength=925 nm, w1 = 0.8001
  refractive index: 1.44951 ± 0.00063
[2]; Wavelength=925 nm, w1 = 0.8994
  refractive index: 1.46633 ± 0.00063

## Cc1ccccc1 [toluene]
[1]; Wavelength=670 nm
  refractive index: 1.48998 ± 0.00063
[1]; Wavelength=925 nm
  refractive index: 1.48176 ± 0.00063
